Earlier results on 2 molecules are cited in patent US4130647A, “Methods for treating congestive heart failure and ischemic heart disease” (priority 1977, dated 1978).

The test system of the data set is patients with congestive heart failure. The settings on record: cited from earlier work.

`NNc1nncc2ccccc12` [hydralazine]: the “left ventricular filling pressures” value (heart failure) is given as “does not usually lower left ventricular filling pressures”. The side effects result (in vivo) was “serologic side effects and leading to sodium retention”. For the same molecule, for the setting “left ventricular failure”, the Pulmonary Wedge Pressure entry is given as “only slightly reduces pulmonary wedge pressure”; the “right atrial pressure and forearm veins” value is “does not reduce right atrial pressure or dilate forearm veins”.

For `O=[N+]([O-])OCC(CO[N+](=O)[O-])O[N+](=O)[O-]` [nitroglycerin], the cardiac output entry (when left ventricular filling pressures fall below the upper limits of normal) was “A similar phenomenon is observed”.
